From US4182877A, “Substituted anthranilates” (Commonwealth Scientific and Industrial Research Organization, priority 1976, dated 1980)
Values after ≈ are worked out from the molar mass of the structure shown.

System: Tilletia foetida
Assay: In vitro inhibition of germination of Tilletia foetida (wheat smut) spores on agar medium
Type: cell-based
Details: Tilletia laevis, 10° C. in the dark, 8-9 days, tested at 5, 10, 25, 50, 100 and 150 ppm, spores germinated as percentage of control, read-out: Minimum inhibitory concentration (ppm) which reduces germination to <20% control
Experimental: In vitro assays using compounds of the formula I were carried out as follows. An agar medium prepared from Difco "Bacto-Agar" and distilled water was sterilised in an autoclave. Aliquots of the test compounds in acetone solution were added to two duplicate samples of the medium to give final concentrations of 5, 10, 25, 50, 100 and 150 ppm, and the resulting solutions poured into sterilised petri dishes and inoculated with Tilletia foetida (wheat smut) from the kernels of infected wheat. […] The inhibition of germination due to the test compounds was then determined by estimating (microscope) the spores germinated as a percentage of control.

SMILES | MIC
CCOC(=O)c1c(Cl)cc(C)cc1N(C)C [Compound 1, Ethyl 6-chloro-4,N,N-trimethylanthranilate] | 25 µg/mL (≈ 103 µM)
CCOC(=O)c1c(Cl)c(Cl)c(C)c(Cl)c1N(C)C [Compound 3, Ethyl 3,5,6-trichloro-4,N,N-trimethylanthranilate] | 5 µg/mL (≈ 16.1 µM)
CCOC(=O)c1c(N(C)C)cc(C)c(SC#N)c1Cl [Compound 4, Ethyl 6-chloro-4,N,N-trimethyl-5-thiocyanoanthranilate] | < 5 µg/mL
CCOC(=O)c1c(N(CC)CC)cc(C)c(SC#N)c1Cl [Compound 5] | 10 µg/mL (≈ 30.6 µM)
CCOC(=O)c1c(N(C)C)cc(C)c([N+](=O)[O-])c1Cl [Compound 6, Ethyl-6-chloro-4,N,N-trimethyl-5-nitroanthranilate] | < 5 µg/mL
CCOC(=O)c1c(N(CC)CC)cc(C)c([N+](=O)[O-])c1Cl [Compound 7] | 25 µg/mL (≈ 79.4 µM)
CCOC(=O)c1c(Cl)cc(C)cc1N(CC)CC [R^1 = R^2 = R^3 = Et] | 25 µg/mL (≈ 92.7 µM)
